Data: patent publication US9872861B2, “Methods of treatment using selective Bcl-2 inhibitors” (AbbVie Inc., priority 2010, dated 2018)
Marks after values point to notes of the source that are not given here.

Assays:
[1] = test system: spontaneous (NZB×NZW)F1 murine model of lupus; experiment: Spontaneous (NZB×NZW)F1 murine model of lupus: proteinuria, survival, lymphopenia; format: in vivo, (NZB×NZW)F1 mice
Excerpt: (See Liu, K. and C. Mohan, What do mouse models teach us about human SLE? Clin Immunol, 2006. 119(2): p. 123-30) This model has been well-characterized with respect to the patho-physiological changes analogous to those of human SLE. […] Renal histopathological changes include severe glomerulonephritis, mesangial and peripheral proliferative changes, capillary membrane thickening, tubular atrophy, and infiltration of lymphocytes and monocytes/macrophages as in the majority of human SLE patients. These changes result in disruption of kidney function as evidenced by severe proteinuria (PU) greater than 300 mg/dL as measured by albumin sticks, followed by mortality as measured by survival. […] (See Gelfand, M. C. and A. D. Steinberg, Therapeutic studies in NZB-W mice. II. Relative efficacy of azathioprine, cyclophosphamide and methylprednisolone. Arthritis Rheum, 1972. 15(3): p. 247-52; and Ramos, M. A., et al., Modulation of autoantibody production by mycophenolate mofetil: effects on the development of SLE in (NZB×NZW)F1 mice. Nephrol Dial Transplant, 2003. 18(5): p. 878-83)
(NZB×NZW)F1 females were purchased from The Jackson Laboratory (Bar Harbor, Me., USA) and maintained in a conventional animal housing facility throughout the experiment. […] Proteinuria (PU) and survival were monitored weekly, followed by biweekly measurement of lymphocyte and platelet counts, and anti-ds DNA production. PK parameters were also measured throughout the study. Impact on IgG deposition and renal pathology were assessed at the conclusion of the study. Severe PU was defined by two consecutive weekly measurements of PU 300 mg/dl using Albustix test strips (VWR). When mice became moribund, they were sacrificed according to Institutional Animal Care and Use Committee protocols. PU and survival data were presented as Kaplan-Meyer survival curves using Graphpad Prism software and group differences were considered significant at the level of p<0.05. Histologic scores were analyzed using ANOVA analysis. Anti-ds DNA were analyzed using one-way ANOVA analysis and Tukey post-test.

[2] = test system: IgG anti-ds DNA; experiment: Anti-ds DNA titer by ELISA in IFNα-accelerated lupus model; format: in vivo, (NZB×NZW)F1 mice; settings: interferon-induced model, 3-30 mg/kg
Description: An additional experiment was performed to determine the effects of treatment with a selective Bcl-2 inhibitor on anti-DS DNA titer in the Interferon-α accelerated lupus model. Anti-dsDNA antibody levels were measured by ELISA and assigned arbitrary activity unit concentrations per ml relative to a standard plasma pool derived from proteinuric 9-10 month old NZB/W mice. ELISA assay was performed by coating plates with poly-L-lysine followed by calf-thymus DNA. Diluted mouse plasma was incubated and developed using anti-IgG HRP conjugated antibodies and the mean OD from duplicate wells was compared to a titrated standard curve of pooled high tittered anti-dsDNA plasma. The undiluted standard plasma pool was arbitrarily assigned a value of 1000 anti-dsDNA Units/ml. A linear regression analysis was then used to calculate the relative units of a given sample multiplied by the given dilution factor. The results of this experiment are illustrated in FIG. 10.

SMILES: CC1(C)CCC(CN2CCN(c3ccc(C(=O)NS(=O)(=O)c4ccc(NCC5CCOCC5)c([N+](=O)[O-])c4)c(Oc4cnc5[nH]ccc5c4)c3)CC2)=C(c2ccc(Cl)cc2)C1 [Compound 1, 4-(4-{[2-(4-chlorophenyl)-4,4-dimethylcyclohex-1-en-1-yl]methyl}piperazin-1-yl)-N-({3-nitro-4-[(tetrahydro-2H-pyran-4-ylmethyl)amino]phenyl}sulfonyl)-2-(1H-pyrrolo[2,3-b]pyridin-5-yloxy)benzamide]
- % Mice with PU < 300 mg/dL ([1]; Week 47, 1 mg/kg daily oral): 51%
- % Survival ([1]; Week 47, 1 mg/kg daily oral): 60%
- % Mice with PU < 300 mg/dL ([1]; Week 47, 3 mg/kg daily oral): 50%
- % Survival ([1]; Week 47, 3 mg/kg daily oral): 70%
- % Mice with PU < 300 mg/dL ([1]; Week 47, 10 mg/kg daily oral): 66* %
- % Survival ([1]; Week 47, 10 mg/kg daily oral): 83* %
- % Mice with PU < 300 mg/dL ([1]; Week 47, 30 mg/kg daily oral): 94* %
- % Survival ([1]; Week 47, 30 mg/kg daily oral): 100* %
- % Mice with PU < 300 mg/dL ([1]; Week 47, 100 mg/kg daily oral): 100* %
- % Survival ([1]; Week 47, 100 mg/kg daily oral): 100* %
- lymphopenia in peripheral blood ([1]; spontaneous model, 30 mg/kg): 70%
- lymphopenia in peripheral blood ([1]; spontaneous model, 100 mg/kg): 70%
- survival ([1]; spontaneous model, 3, 10, 30 and 100 mg/kg): significantly prolonged survival
- onset of severe PU ([1]; spontaneous model, reaching significance at 10, 30 and 100 mg/kg): delayed onset of severe PU in a dose-dependent fashion
- anti-ds DNA titer [2]: did not significantly inhibit
